Target: T1, human MC5R (hMC5R) (Homo sapiens, UniProt P33032)
T1 construct: purchased Perkin Elmer RBXMC5M400UA
Experiment: Human MC5R radioligand binding assay (membranes, [125I] NDP-MSH displacement)
Conditions: hMC5R binding; tested as trifluoroacetate or hydrochloride salts, or free bases; read-out: MC5R radioligand IC50
Method: Assessments of compound binding to human MC5R (hMC5R) ) by displacement of an ^125I-labeled NDP-MSH receptor ligand peptide were performed essentially as described in the data sheets produced by Perkin Elmer to accompany their frozen hMC5R membranes (Perkin Elmer catalog number RBXMC5M400UA).
[^125I] NDP-MSH: radiolabeled in house and purified by HPLC:
• Na^125I (0.5 mCi, 17.4 Ci/mg) was added to 50 μL sodium phosphate (50 mM, pH7.4) in an eppendorf tube precoated with IODOGEN. After incubation for 10 mins the phosphate buffer containing the iodine was added to NDP-MSH (10 ul at 1 mg/mL) in a separate eppendorf tube. This was incubated for a further 10 mins. The iodinated NDP-MSH was purified by HPLC on a Zorbax SB 300 column using solvent A: 0.05% TFA and solvent B: 90% acetonitrile 0.045% TFA with a linear gradient, 0-67% B over 60 mins. […] Resuspended membranes were kept on ice until they were added to the wells of the plate. Binding Protocol for 400 microassays per vial: • Assays were performed in 96 well polypropylene plates. […] This was incubated for 1 hr at 37° C.

T1 sequence (P33032 whole entry): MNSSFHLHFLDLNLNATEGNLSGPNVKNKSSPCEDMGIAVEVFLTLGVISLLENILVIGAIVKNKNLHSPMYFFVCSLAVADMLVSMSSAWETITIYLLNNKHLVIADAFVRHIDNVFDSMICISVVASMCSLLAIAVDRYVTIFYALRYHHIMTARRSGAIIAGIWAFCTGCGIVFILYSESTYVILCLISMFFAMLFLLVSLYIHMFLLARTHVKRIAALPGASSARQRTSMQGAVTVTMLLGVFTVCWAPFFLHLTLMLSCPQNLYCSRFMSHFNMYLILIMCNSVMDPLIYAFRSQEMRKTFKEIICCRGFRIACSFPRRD

SMILES	IC50 [nM]
N=C(N)NCCC[C@@H]1N[C@H](CNC(=O)c2ccc3ccccc3c2)CCN(Cc2cc(Cl)cc(Cl)c2)C1=O [Compound 14, N-(((3S,5S)-1-(3,5-dichlorobenzyl)-3-(3-guanidinopropyl)-2-oxo-1,4-diazepan-5-yl)methyl)-2-naphthamide]	< 100
CC[C@H](CN1CC[C@@H](CNC(=O)c2ccc3ccccc3c2)N[C@@H](CCN2CCCCC2)C1=O)c1ccccc1 [Compound 38, N-(((3S,5S)-2-oxo-1-((S)-2-phenylbutyl)-3-(2-(piperidin-1-yl)ethyl)-1,4-diazepan-5-yl)methyl)-2-naphthamide]	< 100
CC[C@@H](CN1CC[C@@H](CNC(=O)c2ccc3ccccc3c2)N[C@@H](CCN2CCCCC2)C1=O)c1ccccc1 [Compound 39, N-(((3S,5S)-2-oxo-1-((R)-2-phenylbutyl)-3-(2-(piperidin-1-yl)ethyl)-1,4-diazepan-5-yl)methyl)-2-naphthamide]	< 100
CC(=O)N[C@@H](Cc1ccc2ccccc2c1)[C@@H]1CCN(CC(c2ccccc2)c2ccccc2)C(=O)[C@H](CCCNC(=N)N)N1 [Compound 79, N-((S)-1-((3S,5S)-1-(2,2-diphenylethyl)-3-(3-guanidinopropyl)-2-oxo-1,4-diazepan-5-yl)-2-(naphthalen-2-yl)ethyl)acetamide]	< 10000
CC(=O)N[C@@H](Cc1cnc[nH]1)C(=O)N[C@@H](Cc1ccc2ccccc2c1)[C@@H]1CCN(CC(c2ccccc2)c2ccccc2)C(=O)[C@H](CCCNC(=N)N)N1 [Compound 81, (S)-2-acetamido-N-((S)-1-((3S,5S)-1-(2,2-diphenylethyl)-3-(3-guanidinopropyl)-2-oxo-1,4-diazepan-5-yl)-2-(naphthalen-2-yl)ethyl)-3-(1H-imidazol-5-yl)propanamide]	< 1000
CCCOC(=O)N[C@@H](Cc1ccc2ccccc2c1)[C@@H]1CCN(CC(c2ccccc2)c2ccccc2)C(=O)[C@H](CCCNC(=N)N)N1 [Compound 83, propyl (S)-1-((3S,5S)-1-(2,2-diphenylethyl)-3-(3-guanidinopropyl)-2-oxo-1,4-diazepan-5-yl)-2-(naphthalen-2-yl)ethylcarbamate]	< 1000
CC(=O)N[C@H](Cc1ccc2ccccc2c1)[C@@H]1CCN(CC(c2ccccc2)c2ccccc2)C(=O)[C@H](CCCNC(=N)N)N1 [Compound 85, N—((R)-1-((3S,5S)-1-(2,2-diphenylethyl)-3-(3-guanidinopropyl)-2-oxo-1,4-diazepan-5-yl)-2-(naphthalen-2-yl)ethyl)acetamide]	< 10000
CC(=O)N[C@@H](Cc1c[nH]cn1)C(=O)N[C@H](Cc1ccc2ccccc2c1)[C@@H]1CCN(CC(c2ccccc2)c2ccccc2)C(=O)[C@H](CCCNC(=N)N)N1 [Compound 86, (S)-2-acetamido-N—((R)-1-((3S,5S)-1-(2,2-diphenylethyl)-3-(3-guanidinopropyl)-2-oxo-1,4-diazepan-5-yl)-2-(naphthalen-2-yl)ethyl)-3-(1H-imidazol-4-yl)propanamide]	< 1000
CCCOC(=O)N[C@H](Cc1ccc2ccccc2c1)[C@@H]1CCN(CC(c2ccccc2)c2ccccc2)C(=O)[C@H](CCCNC(=N)N)N1 [Compound 87, propyl (R)-1-((3S,5S)-1-(2,2-diphenylethyl)-3-(3-guanidinopropyl)-2-oxo-1,4-diazepan-5-yl)-2-(naphthalen-2-yl)ethylcarbamate]	< 10000
NCCC[C@@H]1N[C@H](CNC(=O)c2ccc(-c3ccccc3)cc2)CCN(CC(c2ccccc2)c2ccccc2)C1=O [Compound 106, N-(((3S,5S)-3-(3-aminopropyl)-1-(2,2-diphenylethyl)-2-oxo-1,4-diazepan-5-yl)methyl)biphenyl-4-carboxamide]	< 1000
NCCC[C@@H]1N[C@H](CNC(=O)c2cc3ccccc3[nH]2)CCN(CC(c2ccccc2)c2ccccc2)C1=O [Compound 107, N-(((3S,5S)-3-(3-aminopropyl)-1-(2,2-diphenylethyl)-2-oxo-1,4-diazepan-5-yl)methyl)-1H-indole-2-carboxamide]	< 1000
N=C(N)NCCC[C@@H]1N[C@H](CNC(=O)c2ccc(-c3ccccc3)cc2)CCN(CC(c2ccccc2)c2ccccc2)C1=O [Compound 108, N-(((3S,5S)-1-(2,2-diphenylethyl)-3-(3-guanidinopropyl)-2-oxo-1,4-diazepan-5-yl)methyl)biphenyl-4-carboxamide]	< 100
N=C(N)NCCC[C@@H]1N[C@H](CNC(=O)c2cc3ccccc3[nH]2)CCN(CC(c2ccccc2)c2ccccc2)C1=O [Compound 109, N-(((3S,5S)-1-(2,2-diphenylethyl)-3-(3-guanidinopropyl)-2-oxo-1,4-diazepan-5-yl)methyl)-1H-indole-2-carboxamide]	< 1000
NCCCC[C@@H]1N[C@H](CNC(=O)Cc2c[nH]c3ccccc23)CCN(Cc2cccc3ccccc23)C1=O [Compound 120, N-(((3S,5S)-3-(4-aminobutyl)-1-(naphthalen-1-ylmethyl)-2-oxo-1,4-diazepan-5-yl)methyl)-2-(1H-indol-3-yl)acetamide]	< 10000
NCCCC[C@@H]1N[C@H](CNC(=O)Cc2ccc(-c3ccccc3)cc2)CCN(Cc2ccc3ccccc3c2)C1=O [Compound 121, N-(((3S,5S)-3-(4-aminobutyl)-1-(naphthalen-2-ylmethyl)-2-oxo-1,4-diazepan-5-yl)methyl)-2-(biphenyl-4-yl)acetamide]	< 1000
NCCCC[C@@H]1N[C@H](CNC(=O)[C@@H]2Cc3ccccc3CN2)CCN(CC(c2ccccc2)c2ccccc2)C1=O [Compound 127, (S)—N-(((3S,5S)-3-(4-aminobutyl)-1-(2,2-diphenylethyl)-2-oxo-1,4-diazepan-5-yl)methyl)-1,2,3,4-tetrahydroisoquinoline-3-carboxamide]	< 10000
NCCCC[C@@H]1N[C@H](CNC(=O)[C@H]2Cc3ccccc3CN2)CCN(CC(c2ccccc2)c2ccccc2)C1=O [Compound 128, (R)—N-(((3S,5S)-3-(4-aminobutyl)-1-(2,2-diphenylethyl)-2-oxo-1,4-diazepan-5-yl)methyl)-1,2,3,4-tetrahydroisoquinoline-3-carboxamide]	< 1000
NCCCC[C@@H]1N[C@H](CNC(=O)c2cc3ccccc3o2)CCN(CC(c2ccccc2)c2ccccc2)C1=O [Compound 129, N-(((3S,5S)-3-(4-aminobutyl)-1-(2,2-diphenylethyl)-2-oxo-1,4-diazepan-5-yl)methyl)benzofuran-2-carboxamide]	< 10000
CNC(=N)NCCC[C@@H]1N[C@H](CNC(=O)[C@H]2Cc3ccccc3CN2)CCN(CC(c2ccccc2)c2ccccc2)C1=O [Compound 130, (R)—N-(((3S,5S)-1-(2,2-diphenylethyl)-3-(3-(3-methylguanidino)propyl)-2-oxo-1,4-diazepan-5-yl)methyl)-1,2,3,4-tetrahydroisoquinoline-3-carboxamide]	< 10000
N=C(N)NCCC[C@@H]1N[C@H](CNC(=O)[C@@H]2Cc3ccccc3CN2)CCN(CC(c2ccccc2)c2ccccc2)C1=O [Compound 131, (S)—N-(((3S,5S)-1-(2,2-diphenylethyl)-3-(3-guanidinopropyl)-2-oxo-1,4-diazepan-5-yl)methyl)-1,2,3,4-tetrahydroisoquinoline-3-carboxamide]	< 10000
N=C(N)NCCC[C@@H]1N[C@H](CNC(=O)c2cc3ccccc3o2)CCN(CC(c2ccccc2)c2ccccc2)C1=O [Compound 132, N-(((3S,5S)-1-(2,2-diphenylethyl)-3-(3-guanidinopropyl)-2-oxo-1,4-diazepan-5-yl)methyl)benzofuran-2-carboxamide]	< 10000
